24 compounds from US8946438B2, “Benzamides, production thereof, and use thereof as medicaments” (Boehringer Ingelheim International GmbH, priority 2008, dated 2015) can be followed below.

This test addresses p38 MAP-kinase (Homo sapiens, UniProt Q16539). Briefly: Enzymatic assay: inhibition of p38 MAP-kinase (phosphorylation of GST-tagged ATF2, chemoluminescence bead readout). It is filed as biochemical. The settings on record: inhibitor 1 μM, activated p38 MAP-kinase 1 nM, 4 h preincubation, ATP 100 μM, ATF2 10 nM; for inhibition at 1 µM: read-out: % inhibitory effect at 1 μM. As to the method:
In this, the amount of a substrate phosphorylated by the kinase is quantified. The test is carried out as follows:
The kinase reaction is carried out in the presence of HEPES (20 mM, pH 7), MgCl2 (10 mM), DTT (1 mM) and TWEEN20 (0.01%). First, dimethylsulphoxide or inhibitor (final concentration: 1 μM) dissolved in dimethylsulphoxide are placed in a reaction vessel. Then the activated p38 MAP-kinase (final concentration 1 nM) is added and the mixture is incubated for 4 h at ambient temperature. Then a mixture of substrate (GST-tagged ATF2) and ATP is added and everything is incubated together for a further hour (final concentration ATP: 100 μM; final concentration ATF2: 10 nM).
The concentration of phosphorylated ATF2 is quantified by chemoluminescence-induced light emission. For this, a glutathione donor bead (final concentration: 5 μg/ml) which binds to the gluthathione on the ATF2 and phospho-ATF2 antibodies are added to the reaction mixture (final concentration: 3 nM; this binds the phosphate group added by the kinase reaction) to which a Protein A Acceptor Bead (final concentration: 5 μg/ml) binds. These components are dissolved in a buffer which contains 20 mM HEPES pH 7.0, 200 mM NaCL, 80 mM EDTA as well as 0.3% BSA. This reaction mixture is incubated in the dark for 1 hour at ambient temperature. When these beads come physically close, visible light is emitted which is measured in a photometer at 520-620 nm.
To determine the inhibitory activity of the compounds according to the invention a calculation is made to determine the percentage by which the kinase activity is inhibited at a fixed inhibitor concentration of 1 μM. The maximum activity is determined by non-inhibited kinase. The minimum activity or nonspecific background activity is determined using a reaction mixture without kinase. […] Table 2 summarises the degree of inhibition of the enzyme p38 MAP-kinase—as described hereinbefore—of the compounds according to the invention detailed in the section “Preparation of the final compounds”.

Sequence of p38 MAP-kinase (Q16539 whole entry): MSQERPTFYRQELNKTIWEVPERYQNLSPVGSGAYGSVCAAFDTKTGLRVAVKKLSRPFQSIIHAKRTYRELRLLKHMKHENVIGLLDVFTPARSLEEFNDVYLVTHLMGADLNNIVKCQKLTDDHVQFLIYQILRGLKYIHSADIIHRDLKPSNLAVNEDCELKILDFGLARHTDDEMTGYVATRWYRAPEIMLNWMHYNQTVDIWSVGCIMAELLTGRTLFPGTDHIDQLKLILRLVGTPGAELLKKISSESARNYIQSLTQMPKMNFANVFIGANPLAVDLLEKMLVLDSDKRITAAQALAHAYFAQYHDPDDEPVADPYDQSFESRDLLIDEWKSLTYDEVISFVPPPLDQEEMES

In the case of `COc1c(NC(=O)c2ccc(Cl)c(Oc3cc(C(=O)N4CCNCC4)ncn3)c2)cc(C(C)(C)C)cc1NS(C)(=O)=O` [5(3), N-(5-tert-butyl-3-methanesulphonylamino-2-methoxy-phenyl)-4-chloro-3-[6-(piperazine-1-carbonyl)-pyrimidin-4-yloxy]-benzamide], the inhibition at 1 µM came out at 95%.

Regarding `COc1c(NC(=O)c2ccc(C(F)(F)F)c(Oc3ccnc(N4CCNCC4)n3)c2)cc(C(C)(C)C)cc1NS(C)(=O)=O` [5(4), N-(5-tert-butyl-3-methanesulphonylamino-2-methoxy-phenyl)-3-(2-piperazin-1-yl-pyrimidin-4-yloxy)-4-trifluoromethyl-benzamide x trifluoroacetic acid], the inhibition at 1 µM was found to be 45.3%. As to `COc1c(NC(=O)c2ccc(Cl)c(Oc3ccnc(N4CCNCC4)n3)c2)cc(C(C)(C)C)cc1NS(C)(=O)=O` [5(5), N-(5-tert-butyl-3-methanesulphonylamino-2-methoxy-phenyl)-4-chloro-3-(2-piperazin-1-yl-pyrimidin-4-yloxy)-benzamide], the inhibition at 1 µM stood at 98.3%. On the same count and under the same terms, for `COc1c(NC(=O)c2ccc(C)c(Oc3ccnc(CN4CCNCC4)n3)c2)cc(C(C)(C)C)cc1NS(C)(=O)=O` [5(6), N-(5-tert-butyl-3-methanesulphonylamino-2-methoxy-phenyl)-4-methyl-3-(2-piperazin-1-ylmethyl-pyrimidin-4-yloxy)-benzamide] the value was 98.3%; for `COc1c(NC(=O)c2ccc(C)c(Oc3cc(CN4CCNCC4)ncn3)c2)cc(C(C)(C)C)cc1NS(C)(=O)=O` [5(7), N-(5-tert-butyl-3-methanesulphonylamino-2-methoxy-phenyl)-4-methyl-3-(6-piperazin-1-ylmethyl-pyrimidin-4-yloxy)-benzamide], 97.8%. Turning to `COc1ccc(C(=O)Nc2cc(C(C)(C)C)cc(NS(C)(=O)=O)c2OC)cc1Oc1ccnc(N2CCNCC2)n1` [5(8), N-(5-tert-butyl-3-methanesulphonylamino-2-methoxy-phenyl)-4-methoxy-3-(2-piperazin-1-yl-pyrimidin-4-yloxy)-benzamide], the inhibition at 1 µM came out at 98.9%. With `COc1c(NC(=O)c2ccc(C)c(Oc3ccnc(CN4CCNCC4)c3)c2)cc(C(C)(C)C)cc1NS(C)(=O)=O` [5(9), N-(5-tert-butyl-3-methanesulphonylamino-2-methoxy-phenyl)-4-methyl-3-(2-piperazin-1-ylmethyl-pyridin-4-yloxy)-benzamide x trifluoroacetic acid], the inhibition at 1 µM was 98.5%. Consider `COc1c(NC(=O)c2ccc(F)c(Oc3ccnc(N4CCNCC4)n3)c2)cc(C(C)(C)C)cc1NS(C)(=O)=O` [5(10), N-(5-tert-butyl-3-methanesulphonylamino-2-methoxy-phenyl)-4-fluoro-3-(2-piperazin-1-yl-pyrimidin-4-yloxy)-benzamide x trifluoroacetic acid], for which the inhibition at 1 µM turned out to be 94.6%.

`COc1c(NC(=O)c2ccc(Br)c(Oc3ccnc(N4CCNCC4)n3)c2)cc(C(C)(C)C)cc1NS(C)(=O)=O` [5(11), N-(5-tert-butyl-3-methanesulphonylamino-2-methoxy-phenyl)-4-bromo-3-(2-piperazin-1-yl-pyrimidin-4-yloxy)-benzamide]: the inhibition at 1 µM stood at 98.4%. With `COc1c(NC(=O)c2cc(Cl)c(C)c(Oc3ccnc(N4CCNCC4)n3)c2)cc(C(C)(C)C)cc1NS(C)(=O)=O` [5(12), N-(5-tert-butyl-3-methanesulphonylamino-2-methoxy-phenyl)-3-chloro-4-methyl-5-(2-piperazin-1-yl-pyrimidin-4-yloxy)-benzamide], the inhibition at 1 µM was 98.6%. Take `COc1c(NC(=O)c2cc(F)c(C)c(Oc3ccnc(N4CCNCC4)n3)c2)cc(C(C)(C)C)cc1NS(C)(=O)=O` [5(13), N-(5-tert-butyl-3-methanesulphonylamino-2-methoxy-phenyl)-3-fluoro-4-methyl-5-(2-piperazin-1-yl-pyrimidin-4-yloxy)-benzamide]: the inhibition at 1 µM came out at 98.2%. Same read-out and setting: for `COc1c(NC(=O)c2ccc(C)c(Oc3ccnc(N(C)C4CCNCC4)n3)c2)cc(C(C)(C)C)cc1NS(C)(=O)=O` [5(14), N-(5-tert-butyl-3-methanesulphonylamino-2-methoxy-phenyl)-4-methyl-3-[2-(N-methyl-N-piperidin-4-yl-amino)-pyrimidin-4-yloxy]-benzamide] the value was 98.5%; for `CCc1ccc(C(=O)Nc2cc(C(C)(C)C)cc(NS(C)(=O)=O)c2OC)cc1Oc1ccnc(N2CCNCC2)n1` [5(15), N-(5-tert-butyl-3-methanesulphonylamino-2-methoxy-phenyl)-4-ethyl-5-(2-piperazin-1-yl-pyrimidin-4-yloxy)-benzamide], 96%; for `COc1c(NC(=O)c2ccc(C)c(Oc3ccnc(NC4CCNCC4)n3)c2)cc(C(C)(C)C)cc1NS(C)(=O)=O` [5(16), N-(5-tert-butyl-3-methanesulphonylamino-2-methoxy-phenyl)-4-methyl-3-[2-(piperidin-4-ylamino)-pyrimidin-4-yloxy]-benzamide], 98.9%. Take `COc1c(NC(=O)c2ccc(C)c(Oc3cc(NC4CCNCC4)ncn3)c2)cc(C(C)(C)C)cc1NS(C)(=O)=O` [5(17), N-(5-tert-butyl-3-methanesulphonylamino-2-methoxy-phenyl)-4-methyl-3-[6-(piperidin-4-ylamino)-pyrimidin-4-yloxy]-benzamide x trifluoroacetic acid]: the inhibition at 1 µM was determined as 98.2%. On the same count and under the same terms, the figure for `COc1c(NC(=O)c2ccc(C)c(Oc3cc(CC4CCNCC4)ncn3)c2)cc(C(C)(C)C)cc1NS(C)(=O)=O` [5(18), N-(5-tert-butyl-3-methanesulphonylamino-2-methoxy-phenyl)-4-methyl-3-(6-piperidin-4-ylmethyl-pyrimidin-4-yloxy)-benzamide] is 98.7%. Still for that read-out and setting: for `COc1c(NC(=O)c2ccc(C)c(Oc3ccnc(CC4CCNCC4)n3)c2)cc(C(C)(C)C)cc1NS(C)(=O)=O` [5(19), N-(5-tert-butyl-3-methanesulphonylamino-2-methoxy-phenyl)-4-methyl-3-(2-piperidin-4-ylmethyl-pyrimidin-4-yloxy)-benzamide] the value was 99.7%; for `COc1c(NC(=O)c2ccc(C)c(Oc3ccnc(CC4CCNCC4)c3)c2)cc(C(C)(C)C)cc1NS(C)(=O)=O` [5(20), N-(5-tert-butyl-3-methanesulphonylamino-2-methoxy-phenyl)-4-methyl-3-(2-piperidin-4-ylmethyl-pyridin-4-yloxy)-benzamide], 99.5%.

Take `COc1c(NC(=O)c2cc(C)cc(Oc3ccnc(C(=O)N4CCNCC4)n3)c2)cc(C(C)(C)C)cc1NS(C)(=O)=O` [5(21), N-(5-tert-butyl-3-methanesulphonylamino-2-methoxy-phenyl)-3-methyl-5-[2-(piperazine-1-carbonyl)-pyrimidin-4-yloxy]-benzamide x trifluoroacetic acid]: the inhibition at 1 µM stood at 88.9%. Consider `COc1c(NC(=O)c2cc(C)cc(Oc3ccnc(CN4CCNCC4)n3)c2)cc(C(C)(C)C)cc1NS(C)(=O)=O` [5(22), N-(5-tert-butyl-3-methanesulphonylamino-2-methoxy-phenyl)-3-methyl-5-(2-piperazin-1-ylmethyl-pyrimidin-4-yloxy)-benzamide], for which the inhibition at 1 µM was 85.7%. Consider `COc1c(NC(=O)c2ccc(C)c(Oc3ccnc(NC4CCNC4)n3)c2)cc(C(C)(C)C)cc1NS(C)(=O)=O` (stereo not drawn) [5(23), N-(5-tert-butyl-3-methanesulphonylamino-2-methoxy-phenyl)-4-methyl-3-[2-(pyrrolidin-3-ylamino)-pyrimidin-4-yloxy]-benzamide], for which the inhibition at 1 µM stood at 98.3%. Consider `COc1c(NC(=O)c2ccc(C)c(Oc3ccnc(N(C)C4CCNC4)n3)c2)cc(C(C)(C)C)cc1NS(C)(=O)=O` (stereo not drawn) [5(24), N-(5-tert-butyl-3-methanesulphonylamino-2-methoxy-phenyl)-4-methyl-3-[2-(methyl-pyrrolidin-3-yl-amino)-pyrimidin-4-yloxy]-benzamide], for which the inhibition at 1 µM was 97.9%. Regarding `COc1c(NC(=O)c2ccc(C)c(Oc3ccnc(N(C)C4CCNCC4)n3)c2)cc(C(C)(C)C)cc1NS(C)(=O)=O` [5(25), N-(5-tert-butyl-3-methanesulphonylamino-2-methoxy-phenyl)-4-methyl-3-[2-(methyl-piperidin-4-yl-amino)-pyrimidin-4-yloxy]-benzamide], the “% inhibitory effect at 1 μM” value came out at 97.6%.

Turning to `COc1c(NC(=O)c2ccc(C)c(Oc3cc(NC4CCNC4)ncn3)c2)cc(C(C)(C)C)cc1NS(C)(=O)=O` (stereo not drawn) [5(26), N-(5-tert-butyl-3-methanesulphonylamino-2-methoxy-phenyl)-4-methyl-3-[6-(pyrrolidin-3-ylamino)-pyrimidin-4-yloxy]-benzamide], the inhibition at 1 µM is 97.6%.
